This assay deals with Abeta 40. Kind of assay: In vivo inhibition of beta-secretase: Abeta 40 reduction in CSF and brain of the rat. To be noted: 10 mpk (unless otherwise noted), after 4 hrs. The source says: In Vivo Inhibition of Beta-Secretase
Several animal models, including mouse, rat, dog, and monkey, may be used to screen for inhibition of beta-secretase activity in vivo following administration of a test compound sample. Animals used in this invention can be wild type, transgenic, or gene knockout animals. […] One to twenty-four hours following the administration of compound, animals are sacrificed, and brains as well as cerebrospinal fluid (CSF) and plasma are removed for analysis of A-beta levels and drug or test compound concentrations (Dovey et al., 2001, Journal of Neurochemistry, 76, 173-181) Beginning at time 0, animals are administered by oral gavage, or other means of delivery such as intravenous injection, an inhibitory test compound of up to 100 mg/kg in a standard, conventional formulation, such as 2% hydroxypropyl methylcellulose, 1% Tween80. A separate group of animals receive 2% hydroxypropyl methylcellulose, 1% Tween80 alone, containing no test compound, and serve as a vehicle-control group. At the end of the test period, animals are sacrificed and brain tissues, plasma or cerebrospinal fluid are collected. Brains are either homogenized in 10 volumes (w/v) of 0.2% diethylamine (DEA) in 50 mM NaCl (Best et al., 2005, Journal of Pharmacology and Experimental Therapeutics, 313, 902-908), or in 10 volumes of 0.5% TritonX-100 in Tris-buffered saline (pH at about 7.6). Homogenates are centrifuged at 355,000 g, 4° C. for 30 minutes. CSF or brain supernatants are then analyzed for the presence of A-beta peptide by specific sandwich ELISA assays based on ECL (Electrochemiluminescence) technology. For example, rat Abeta40 is measured using biotinylated-4G8 (Signet) as a capture antibody and Fab40 (an in-house antibody specific to the C-terminal of Abeta40) as a detection antibody.
Actual vehicles used: Oral: 2% HPMC, 1% Tween80, pH 2.2

As for `Cc1cc(OC(F)F)cnc1C(=O)Nc1ccc(F)c([C@]2(C)CS(=O)(=O)[C@@](C)(F)C(N)=N2)c1` [Example 321, N-(3-((3R,6R)-5-amino-6-fluoro-3,6-dimethyl-1,1-dioxido-3,6-dihydro-2H-1,4-thiazin-3-yl)-4-fluorophenyl)-5-(difluoromethoxy)-3-methyl-2-pyridinecarboxamide], the “% reduction of rat CSF levels at 10 pmk” value is on record as 44% and the “% reduction of rat brain levels at 10 mpk” value (“% reduction … at 10 mpk” for short) turned out to be 37%.
Consider `Cc1cc(OC(F)F)cnc1C(=O)Nc1cnc(F)c([C@]2(C)CS(=O)(=O)C(C)(C)C(N)=N2)c1` [Example 400, N-(5-((3R)-5-amino-3,6,6-trimethyl-1,1-dioxido-3,6-dihydro-2H-1,4-thiazin-3-yl)-6-fluoro-3-pyridinyl)-5-(difluoromethoxy)-3-methyl-2-pyridinecarboxamide], for which the “% reduction of rat CSF levels at 10 pmk” value is 58% and the “% reduction … at 10 mpk” value was found to be 25%.
In the same order, the values of `CC1(C)C(N)=N[C@](CF)(c2cc(NC(=O)c3ccc(Cl)cn3)ccc2F)CS1(=O)=O` [Example 193, (S)—N-(3-(5-amino-3-(fluoromethyl)-6,6-dimethyl-1,1-dioxido-3,6-dihydro-2H-1,4-thiazin-3-yl)-4-fluorophenyl)-5-chloropicolinamide] are 57% and 30%.
In the same order, the values of `Cc1c(C(=O)Nc2ccc(F)c([C@]3(CF)CS(=O)(=O)C(C)(C)C(N)=N3)c2)nc2ccc(Cl)cn12` [Example 158, (S)—N-(3-(5-amino-3-(fluoromethyl)-6,6-dimethyl-1,1-dioxido-3,6-dihydro-2H-1,4-thiazin-3-yl)-4-fluorophenyl)-6-chloro-3-methylimidazo[1,2-a]pyridine-2-carboxamide] are 11% and −5%.
In the same order, the values of `COc1cnc(C(=O)Nc2ccc(F)c([C@]3(C)CS(=O)(=O)[C@@](C)(F)C(N)=N3)c2)cn1` [Example 30, N-(3-((3R,6R)-5-amino-6-fluoro-3,6-dimethyl-1,1-dioxido-3,6-dihydro-2H-1,4-thiazin-3-yl)-4-fluorophenyl)-5-methoxy-2-pyrazinecarboxamide] are 56% and 37%.
Regarding `CC1(C)C(N)=N[C@](CF)(c2cc(Nc3nccc4cc(C#N)cnc34)ccc2F)CS1(=O)=O` [Example 387, 8-((3-((3S)-5-amino-3-(fluoromethyl)-6,6-dimethyl-1,1-dioxido-3,6-dihydro-2H-1,4-thiazin-3-yl)-4-fluorophenyl)amino)-1,7-naphthyridine-3-carbonitrile], the “% reduction of rat CSF levels at 10 pmk” value is given as 43% and the “% reduction … at 10 mpk” value was 27%.
In the same order, the values of `CC1(C)C(N)=N[C@](C)(c2cc(NC(=O)c3ccc(Cl)cn3)cnc2F)CS1(=O)=O` [Example 398, N-(5-((3R)-5-amino-3,6,6-trimethyl-1,1-dioxido-3,6-dihydro-2H-1,4-thiazin-3-yl)-6-fluoro-3-pyridinyl)-5-chloro-2-pyridinecarboxamide] are 63% and 39%.
In the case of `CC1(C)C(N)=N[C@](C)(c2cc(Nc3nccc4cc(Cl)cnc34)ccc2F)CS1(=O)=O` [Example 45, N-(3-((3R)-5-amino-3,6,6-trimethyl-1,1-dioxido-3,6-dihydro-2H-1,4-thiazin-3-yl)-4-fluorophenyl)-3-chloro-1,7-naphthyridin-8-amine], the “% reduction of rat CSF levels at 10 pmk” value is on record as 63% and the “% reduction … at 10 mpk” value is 34%.
On to `Cc1cc(OC(F)F)cnc1C(=O)Nc1cc([C@]2(C)CS(=O)(=O)C(C)(C)C(N)=N2)c(=O)n(C)c1` [Example 171, (R)—N-(5-(5-amino-3,6,6-trimethyl-1,1-dioxido-3,6-dihydro-2H-1,4-thiazin-3-yl)-1-methyl-6-oxo-1,6-dihydropyridin-3-yl)-5-(difluoromethoxy)-3-methylpicolinamide], for which the “% reduction of rat CSF levels at 10 pmk” value was determined as 1% and the “% reduction … at 10 mpk” value is listed as 3%.
Taken in the same sequence, the figures for `Cc1cc(Cl)cnc1C(=O)Nc1ccc(F)c([C@]2(CF)CS(=O)(=O)C3(CC3)C(N)=N2)c1` [Example 216, (S)—N-(3-(8-amino-6-(fluoromethyl)-4,4-dioxido-4-thia-7-azaspiro[2.5]oct-7-en-6-yl)-4-fluorophenyl)-5-chloro-3-methylpicolinamide] were 57% and 14%.
Taken in the same sequence, the figures for `CC1(C)C(N)=N[C@](C)(c2cc(NC(=O)c3cnc(OCC(F)(F)F)cn3)cnc2F)CS1(=O)=O` [Example 402, N-(5-((3R)-5-amino-3,6,6-trimethyl-1,1-dioxido-3,6-dihydro-2H-1,4-thiazin-3-yl)-6-fluoro-3-pyridinyl)-5-(2,2,2-trifluoroethoxy)-2-pyrazinecarboxamide] were 43% and 10%.
Taken in the same sequence, the figures for `CC1(C)C(N)=N[C@](C)(c2cc(Nc3nccc4cc(C#N)cnc34)ccc2F)CS1(=O)=O` [Example 48, 8-((3-((3R)-5-amino-3,6,6-trimethyl-1,1-dioxido-3,6-dihydro-2H-1,4-thiazin-3-yl)-4-fluorophenyl)amino)-1,7-naphthyridine-3-carbonitrile] were 79% and 59%.
For the molecule `CC#CCOc1cnc(C(=O)Nc2ccc(F)c([C@]3(C)CS(=O)(=O)[C@@](C)(F)C(N)=N3)c2)cn1` [Example 317, N-(3-((3R,6R)-5-amino-6-fluoro-3,6-dimethyl-1,1-dioxido-3,6-dihydro-2H-1,4-thiazin-3-yl)-4-fluorophenyl)-5-(2-butyn-1-yloxy)-2-pyrazinecarboxamide], the “% reduction of rat CSF levels at 10 pmk” value worked out at 23% and the “% reduction … at 10 mpk” value came to 0%.
Taken in the same sequence, the figures for `Cc1cc(OC(F)F)cnc1C(=O)Nc1ccc(F)c([C@@]2(C)N=C(N)C3(CCC3)S(=O)(=O)[C@@H]2F)c1` [Example 132, N-(3-((6S,7R)-9-amino-6-fluoro-7-methyl-5,5-dioxido-5-thia-8-azaspiro[3.5]non-8-en-7-yl)-4-fluorophenyl)-5-(difluoromethoxy)-3-methylpicolinamide] were 31% and 10%.
As to `CC1(C)C(N)=N[C@](C)(c2cc(Nc3ncnc4cc(Cl)cnc34)ccc2F)C(F)S1(=O)=O` (stereo partly drawn) [Example 228, N-(3-((3R)-5-amino-2-fluoro-3,6,6-trimethyl-1,1-dioxido-3,6-dihydro-2H-1,4-thiazin-3-yl)-4-fluorophenyl)-7-chloropyrido[3,2-d]pyrimidin-4-amine], the “% reduction of rat CSF levels at 10 pmk” value came out at 67% and the “% reduction … at 10 mpk” value amounted to 58%.
In the same order, the values of `C[C@]1(c2cc(NC(=O)c3ccc(Cl)cn3)ccc2F)N=C(N)C2(CCC2)S(=O)(=O)[C@@H]1F` [Example 131, N-(3-((6S,7R)-9-amino-6-fluoro-7-methyl-5,5-dioxido-5-thia-8-azaspiro[3.5]non-8-en-7-yl)-4-fluorophenyl)-5-chloropicolinamide] are 10% and −18%.
For `CC#CCOc1cnc(C(=O)Nc2ccc(F)c([C@@]3(C)N=C(N)C(C)(C)S(=O)(=O)C3F)c2)cn1` (stereo partly drawn) [Example 332, N-(3-((3R)-5-amino-2-fluoro-3,6,6-trimethyl-1,1-dioxido-3,6-dihydro-2H-1,4-thiazin-3-yl)-4-fluorophenyl)-5-(2-butyn-1-yloxy)-2-pyrazinecarboxamide], the “% reduction of rat CSF levels at 10 pmk” value is 24% and the “% reduction … at 10 mpk” value turned out to be 11%.
Turning to `CC1(C)C(N)=N[C@](C)(c2cc(Nc3ncnc4cc(C#N)cnc34)ccc2F)C(F)S1(=O)=O` (stereo partly drawn) [Example 229, 4-((3-((3R)-5-amino-2-fluoro-3,6,6-trimethyl-1,1-dioxido-3,6-dihydro-2H-1,4-thiazin-3-yl)-4-fluorophenyl)amino)pyrido[3,2-d]pyrimidine-7-carbonitrile], the “% reduction of rat CSF levels at 10 pmk” value was 61% and the “% reduction … at 10 mpk” value is 43%.
In the same order, the values of `COc1cnc(C(=O)Nc2ccc(F)c([C@]3(CF)CS(=O)(=O)C(C)(C)C(N)=N3)c2)c(C)c1` [Example 377, N-(3-((3S)-5-amino-3-(fluoromethyl)-6,6-dimethyl-1,1-dioxido-3,6-dihydro-2H-1,4-thiazin-3-yl)-4-fluorophenyl)-5-methoxy-3-methyl-2-pyridinecarboxamide] are 68% and 53%.
In the same order, the values of `COc1cnc2c(Nc3ccc(F)c([C@]4(CF)CS(=O)(=O)C(C)(C)C(N)=N4)c3)nccc2n1` [Example 447, N-(3-((3S)-5-amino-3-(fluoromethyl)-6,6-dimethyl-1,1-dioxido-3,6-dihydro-2H-1,4-thiazin-3-yl)-4-fluorophenyl)-2-methoxypyrido[3,4-b]pyrazin-5-amine] are 62% and 42%.

The values are drawn from patent publication US9556135B2, “Amino-dihydrothiazine and amino-dioxido dihydrothiazine compounds as beta-secretase antagonists and methods of use” (Amgen Inc., priority 2012, dated 2017).
